Experimental data reported in PMC9687610, “Adenosine-Mimicking Derivatives of 3-Aminopyrazine-2-Carboxamide: Towards Inhibitors of Prolyl-tRNA Synthetase with Antimycobacterial Activity” (Biomolecules, 2022).
≈ marks a conversion by molar mass, not a printed value. Where two headings read alike, the source gives them in different places.

What was measured:
[1] = tested on: Mycobacterium tuberculosis H37Ra ITM-M006710 (ATCC 9431); assay: Microplate Alamar Blue Assay (MABA), Mtb H37Ra; format: cell-based; conditions: for MIC: Mycobacterium tuberculosis, 120 h, pH 6.6, MABA, Middlebrook 7H9 broth pH 6.6, resazurin after 120 h, read-out: Mtb H37Ra MIC; for antimycobacterial activity (in words): activity refers to Mtb H37Ra from the primary screening if not otherwise stated
[2] = tested on: Mycobacterium smegmatis DSM 43465 (ATCC 607); assay: Microplate Alamar Blue Assay (MABA), M. smegmatis; format: cell-based; conditions: Mycolicibacterium smegmatis, read-out: M. smegmatis MIC
[3] = tested on: M. aurum DSM 43999 (ATCC 23366); assay: Microplate Alamar Blue Assay (MABA), M. aurum; format: cell-based; conditions: Mycolicibacterium aurum, read-out: M. aurum MIC
[4] = tested on: Staphylococcus aureus subsp. aureus CCM 4223 (ATCC 29213); assay: Antibacterial microdilution broth (EUCAST), SA; format: cell-based; conditions: Staphylococcus aureus; read after 24 h; read-out: SA MIC
[5] = tested on: Staphylococcus aureus subsp. aureus methicillin-resistant (MRSA) CCM 4750 (ATCC 43300); assay: Antibacterial microdilution broth (EUCAST), MRSA; format: cell-based; conditions: Staphylococcus aureus; read after 24 h; read-out: MRSA MIC
[6] = tested on: Staphylococcus epidermidis CCM 4418 (ATCC 12228); assay: Antibacterial microdilution broth (EUCAST), SE; format: cell-based; conditions: read after 24 h, read-out: SE MIC
[7] = tested on: Enterococcus faecalis CCM 4224 (ATCC 29212); assay: Antibacterial microdilution broth (EUCAST), EF; format: cell-based; conditions: Enterococcus faecalis; read after 24 h; read-out: EF MIC
[8] = tested on: Escherichia coli CCM 3954 (ATCC 25922); assay: Antibacterial microdilution broth (EUCAST), EC; format: cell-based; conditions: Escherichia coli; read after 24 h; read-out: EC MIC
[9] = tested on: Acinetobacter baumannii DSM 30007 (ATCC 19606); assay: Antibacterial microdilution broth (EUCAST), ACI; format: cell-based; conditions: Acinetobacter baumannii; read after 24 h; read-out: ACI MIC
[10] = tested on: Pseudomonas aeruginosa CCM 3955 (ATCC 27853); assay: Antibacterial microdilution broth (EUCAST), PA; format: cell-based; conditions: Pseudomonas aeruginosa; read after 24 h; read-out: PA MIC
[11] = tested on: Candida albicans CCM 8320 (ATCC 24433); assay: Antifungal microdilution broth (EUCAST), CA; format: cell-based; conditions: Candida albicans; read after 24 h; read-out: CA MIC
[12] = tested on: Candida krusei CCM 8271 (ATCC 6258); assay: Antifungal microdilution broth (EUCAST), CK; format: cell-based; conditions: Pichia kudriavzevii; read after 24 h; read-out: CK MIC
[13] = tested on: Candida parapsilosis CCM 8260 (ATCC 22019); assay: Antifungal microdilution broth (EUCAST), CP; format: cell-based; conditions: Lodderomyces parapsilosis; read after 24 h; read-out: CP MIC
[14] = tested on: Candida tropicalis CCM 8264 (ATCC 750); assay: Antifungal microdilution broth (EUCAST), CT; format: cell-based; conditions: Candida tropicalis; read after 24 h; read-out: CT MIC
[15] = tested on: Aspergillus fumigatus ATCC 204305; assay: Antifungal microdilution broth (EUCAST), AF; format: cell-based; conditions: Aspergillus fumigatus, ATCC204305; read after 24 h; read-out: AF MIC
[16] = tested on: Aspergillus flavus CCM 8363; assay: Antifungal microdilution broth (EUCAST), AFla; format: cell-based; conditions: Aspergillus flavus, CCM8363; read after 24 h; read-out: AFla MIC
[17] = tested on: Lichtheimia corymbifera CCM 8077; assay: Antifungal microdilution broth (EUCAST), LC; format: cell-based; conditions: Lichtheimia corymbifera, CCM8077; read after 24 h; read-out: LC MIC
[18] = tested on: Trichophyton interdigitale CCM 8377 (ATCC 9533); assay: Antifungal microdilution broth (EUCAST), TI; format: cell-based; conditions: Trichophyton interdigitale, 72 h, read-out: TI MIC
[19] = tested on: HepG2 human hepatocellular carcinoma cells; assay: In vitro HepG2 cytotoxicity (CellTiter 96); conditions: Homo sapiens, HepG2, 24 h, read-out: HepG2 IC50, 24 h incubation; * limit = highest evaluated concentration (precipitation in medium); ** over the 1000 µM limit
[20] = tested on: Klebsiella pneumoniae CCM 4415 (ATCC 10031); assay: Antibacterial microdilution broth (EUCAST), KP; conditions: read after 24 h

| SMILES | MIC [1] [µg/mL] | MIC ([3]; MABA, resazurin after 72 h) [µg/mL] | MIC [4] [µM] | MIC [5] [µM] | MIC [6] [µM] | MIC [7] [µM] | MIC [8] [µM] | MIC [9] [µM] | MIC [10] [µM] | MIC [11] [µM] | MIC [12] [µM] | MIC [13] [µM] | MIC [14] [µM] | MIC [15] [µM] | MIC [16] [µM] | MIC [17] [µM] | MIC [18] [µM] | melting point [°C] | IC50 [19] [µM] | KP MIC [20] [µM] | also measured |
| --- | --- | --- | --- | --- | --- | --- | --- | --- | --- | --- | --- | --- | --- | --- | --- | --- | --- | --- | --- | --- | --- |
| CCCCCCCC(=O)Nc1nccnc1C(N)=O [Compound 32] | 250 (≈ 946 µM) | 125 (≈ 473 µM) | > 250 | > 250 | > 250 | > 250 | > 250 | > 250 | > 250 | > 250 | > 250 | > 250 | > 250 | > 250 | > 250 | > 250 | > 250 | 127.9 to 129.3 | > 1000 | > 250 | MIC ([2]; MABA, resazurin after 48 h): 250 µg/mL (≈ 946 µM) |
| NC(=O)c1nccnc1NC(=O)CCc1ccccc1 [Compound 26] | 125 (≈ 462 µM) | ≥ 500 | > 500 | > 500 | > 500 | > 500 | > 500 | > 500 | > 500 | > 500 | > 500 | > 500 | > 500 | > 500 | > 500 | > 500 | > 500 | 160.3 to 161.5 | > 500 | > 500 | antimycobacterial activity (in words) [1]: inactive; MIC ([2]; MABA, resazurin after 48 h): ≥ 500 µg/mL |
| CNC(=O)c1nccnc1NC(=O)c1ccc(Cl)cc1 [Compound 34] | ≥ 500 | ≥ 500 | > 125 | > 125 | > 125 | > 125 | > 125 | > 125 | > 125 | > 125 | > 125 | > 125 | > 125 | > 125 | > 125 | > 125 | > 125 | 204.2 to 205.1 | > 100 | > 125 | MIC ([2]; MABA, resazurin after 48 h): ≥ 500 µg/mL |
| NC(=O)c1nccnc1NC(=O)c1ccccc1Br [Compound 16] | ≥ 250 | ≥ 250 | > 500 | > 500 | > 500 | > 500 | > 500 | > 500 | > 500 | > 500 | > 500 | > 500 | > 500 | > 500 | > 500 | > 500 | > 500 | 223.1 to 225.1 | > 500 | > 500 | MIC ([2]; MABA, resazurin after 48 h): ≥ 250 µg/mL |
| Cc1ccc(-c2nc3nccnc3c(=O)[nH]2)cc1 [Compound 40] | 31.2 (≈ 131 µM) | 250 (≈ 1050 µM) | > 125 | > 125 | > 125 | > 125 | > 125 | > 125 | > 125 | > 125 | > 125 | > 125 | > 125 | > 125 | > 125 | > 125 | > 125 | 300.5 to 302 | > 1000 | > 125 | MIC ([2]; MABA, resazurin after 48 h): ≥ 250 µg/mL |
| O=c1[nH]c(-c2ccc(Cl)cc2)nc2nccnc12 [Compound 42] | ≥ 500 | ≥ 500 | > 125 | > 125 | > 125 | > 125 | > 125 | > 125 | > 125 | > 125 | > 125 | > 125 | > 125 | > 125 | > 125 | > 125 | > 125 | 306.5 to 307.9 | > 250 | > 125 | MIC ([2]; MABA, resazurin after 48 h): ≥ 500 µg/mL |
| NC(=O)c1nccnc1NC(=O)Cc1ccc(F)cc1 [Compound 25] | ≥ 250 | ≥ 250 | > 250 | > 250 | > 250 | > 250 | > 250 | > 250 | > 250 | > 250 | > 250 | > 250 | > 250 | > 250 | > 250 | > 250 | > 250 | 225.3 to 227.3 | > 100 | > 250 | antimycobacterial activity (in words) [1]: inactive; MIC ([2]; MABA, resazurin after 48 h): ≥ 250 µg/mL |
| CC(C)(C)c1ccc(C(=O)Nc2nccnc2C(N)=O)cc1 [Compound 6] | 15.6 (≈ 52.4 µM) | ≥ 500 | > 125 | > 125 | > 125 | > 125 | > 125 | > 125 | > 125 | > 125 | > 125 | > 125 | > 125 | > 125 | > 125 | > 125 | > 125 | 210 to 211.5 | 114 | > 125 | MIC ([2]; 48 h): 15.6 µg/mL (≈ 52.4 µM) |
| CCCCCCC(=O)Nc1nccnc1C(N)=O [Compound 31] | ≥ 500 | ≥ 500 | > 125 | > 125 | > 125 | > 125 | > 125 | > 125 | > 125 | > 125 | > 125 | > 125 | > 125 | > 125 | > 125 | > 125 | > 125 | 131.5 to 132.1 | > 250 | > 125 | MIC ([2]; MABA, resazurin after 48 h): ≥ 500 µg/mL |
| Cc1ccc(C(=O)Nc2nccnc2C(=O)N(C)C)cc1 [Compound 36] | ≥ 500 | ≥ 500 | > 125 | > 125 | > 125 | > 125 | > 125 | > 125 | > 125 | > 125 | > 125 | > 125 | > 125 | > 125 | > 125 | > 125 | > 125 | 188.7 to 189.5 | > 1000 | > 125 | antimycobacterial activity (in words) [1]: inactive; MIC ([2]; MABA, resazurin after 48 h): ≥ 500 µg/mL |
| COc1ccc(C(=O)Nc2nccnc2C(N)=O)cc1 [Compound 9] | ≥ 125 | – | > 125 | > 125 | > 125 | > 125 | > 125 | > 125 | > 125 | > 125 | > 125 | > 125 | > 125 | > 125 | > 125 | > 125 | > 125 | 257 to 258.5 | > 250 | > 125 | MIC ([2]; 48 h): ≥ 125 µg/mL; MIC ([3]; 72 h): ≥ 125 µg/mL |
| NC(=O)c1nccnc1NC(=O)C1CCCCC1 [Compound 27] | 125 (≈ 503 µM) | ≥ 500 | > 500 | > 500 | > 500 | > 500 | > 500 | > 500 | > 500 | > 500 | > 500 | > 500 | > 500 | > 500 | > 500 | > 500 | > 500 | 105.5 to 107 | > 1000 | > 500 | MIC ([2]; MABA, resazurin after 48 h): 250 µg/mL (≈ 1010 µM) |
